For assay [1], the target named is Dihydroorotate dehydrogenase (quinone), mitochondrial (Homo sapiens, UniProt Q02127). The experiment in a line: Inhibition of human recombinant dihydroorotate dehydrogenase (DHODase).
Assay [2] in a line: Concentration required to inhibit proliferation in a mixture of human lymphocytes using mixed lymphocyte reaction test. It counts as functional, cell-based.

Some results are limits rather than exact numbers.

Chain of Dihydroorotate dehydrogenase (quinone), mitochondrial (Q02127 whole entry): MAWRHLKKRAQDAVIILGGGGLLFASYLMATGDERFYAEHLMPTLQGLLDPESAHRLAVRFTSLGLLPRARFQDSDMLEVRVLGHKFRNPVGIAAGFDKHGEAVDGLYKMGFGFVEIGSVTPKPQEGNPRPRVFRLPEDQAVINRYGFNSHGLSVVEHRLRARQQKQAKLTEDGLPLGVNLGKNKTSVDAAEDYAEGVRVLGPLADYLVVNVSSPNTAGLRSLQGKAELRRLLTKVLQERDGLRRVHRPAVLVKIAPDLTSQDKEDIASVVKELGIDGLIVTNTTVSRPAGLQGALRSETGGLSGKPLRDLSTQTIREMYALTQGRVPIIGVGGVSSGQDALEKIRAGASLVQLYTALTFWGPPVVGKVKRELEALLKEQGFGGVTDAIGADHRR

Consider `O=C(O)c1c2c(nc3ccc(F)cc13)-c1ccc(-c3ccccc3)nc1CC2`, for which the Ki (usually a dissociation constant, usually derived from enzyme kinetics or from competition with a known ligand) in assay [1] was 409 nM. In assay [2], the IC50 (in general, the midpoint of a concentration-inhibition curve) amounted to 100 nM.

As for `Cc1cccc(-c2ccc3c(c2)SCc2c-3nc3ccc(F)cc3c2C(=O)O)c1`, the Ki in assay [1] came out at 37 nM. In addition, the IC50 in assay [2] stood at 14 nM.

In the case of `Cc1ccccc1-c1ccc2c(c1)CSc1c-2nc2ccc(F)cc2c1C(=O)O`, in assay [1], the Ki turned out to be 25 nM. Also, the IC50 in assay [2] came to 65 nM.

In the case of `Cc1cccc(-c2ccc3c(n2)CCc2c-3nc3ccc(F)cc3c2C(=O)O)c1`, the Ki in assay [1] is 81 nM. Moreover, the IC50 in assay [2] amounted to 180 nM.

`O=C(O)c1c2c(nc3ccc(F)cc13)-c1ccc(-c3ccccc3)cc1CC2`: the Ki in assay [1] came out at 8.3 nM. In addition, the IC50 in assay [2] is 30 nM.

Consider `O=C(O)c1c2c(nc3ccc(F)cc13)-c1ccc(-c3ccccc3)cc1SC2`, for which the Ki in assay [1] is 17 nM. For the same molecule, in assay [2], the IC50 was 16 nM.

On to `O=C(O)c1c2c(nc3ccc(F)cc13)-c1cc(-c3ccccc3)ccc1CC2`, for which the Ki in assay [1] was more than 1000 nM. Further, the IC50 in assay [2] was more than 5000 nM.

As for `Cc1cccc(-c2ccc3c(c2)CCc2c-3nc3ccc(F)cc3c2C(=O)O)c1`, in assay [1], the Ki turned out to be 59 nM. The IC50 in assay [2] came to 60 nM.

For the molecule `O=C(O)c1c2c(nc3ccc(F)cc13)-c1ccc(-c3cccc(C(F)(F)F)c3)cc1CC2`, the Ki in assay [1] stood at 43 nM. The IC50 in assay [2] stood at 18 nM.

With `O=C(O)c1c2c(nc3ccc(C(F)(F)F)cc13)-c1ccc(-c3ccccc3)cc1CC2`, the Ki in assay [1] stood at 31 nM. In assay [2], the IC50 was determined as 52 nM.

In the case of `Cc1ccc(-c2ccc3c(c2)SCc2c-3nc3ccc(F)cc3c2C(=O)O)cc1`, the Ki in assay [1] was 13 nM. The IC50 in assay [2] was found to be 50 nM.

For `COc1ccccc1-c1ccc2c(c1)CCc1c-2nc2ccc(F)cc2c1C(=O)O`, in assay [1], the Ki came to 20 nM. Besides, in assay [2], the IC50 came out at 50 nM.

For `COc1cccc(-c2ccc3c(n2)CCc2c-3nc3ccc(F)cc3c2C(=O)O)c1`, in assay [1], the Ki was 160 nM. Further, the IC50 in assay [2] came to 300 nM.

As to `Cc1ccc(-c2ccc3c(c2)CSc2c-3nc3ccc(F)cc3c2C(=O)O)cc1`, the Ki in assay [1] was 218 nM. The IC50 in assay [2] is 350 nM.

For `Cc1ccc(-c2ccc3c(c2)CCc2c-3nc3ccc(F)cc3c2C(=O)O)cc1`, the Ki in assay [1] is 40 nM. For the same molecule, the IC50 in assay [2] is 28 nM.

With `O=C(O)c1c2c(nc3ccc(F)cc13)-c1cccc(-c3ccccc3)c1CC2`, the Ki in assay [1] stood at 300 nM. The IC50 in assay [2] was more than 5000 nM.

Turning to `COc1cccc(-c2ccc3c(c2)CCc2c-3nc3ccc(F)cc3c2C(=O)O)c1`, the Ki in assay [1] was 25 nM. In addition, the IC50 in assay [2] amounted to 10 nM.

As for `O=C(O)c1c2c(nc3ccc(F)cc13)-c1ccc(-c3ccsc3)cc1CC2`, the Ki in assay [1] turned out to be 52 nM. In addition, in assay [2], the IC50 was 170 nM.

Take `O=C(O)c1c2c(nc3ccc(F)cc13)-c1ccc(-c3ccc(C(F)(F)F)cc3)cc1CC2`: in assay [1], the Ki was 370 nM. Besides, in assay [2], the IC50 was 850 nM.

For the molecule `O=C(O)c1c2c(nc3ccc(F)cc13)-c1ccc(-c3nccs3)cc1CC2`, the Ki in assay [1] was more than 180 nM. In assay [2], the IC50 is more than 5000 nM.

On to `O=C(O)c1c2c(nc3ccc(F)cc13)-c1ccc(-c3ccccc3)cc1OC2`, for which the Ki in assay [1] came to 48 nM. The IC50 in assay [2] was found to be 220 nM.

With `Cc1cccc(-c2ccc3c(c2)CSc2c-3nc3ccc(F)cc3c2C(=O)O)c1`, in assay [1], the Ki was found to be 135 nM. Besides, the IC50 in assay [2] came to 170 nM.

As for `O=C(O)c1c2c(nc3ccc(F)cc13)-c1ccc(-c3ccccc3)cc1S(=O)(=O)C2`, the Ki in assay [1] was found to be 139 nM. For the same molecule, the IC50 in assay [2] was determined as 8500 nM.

Turning to `O=C(O)c1c2c(nc3ccc(F)cc13)-c1ccc(-c3ccccc3)cc1CO2`, the Ki in assay [1] was more than 204 nM. Besides, the IC50 in assay [2] was 380 nM.

For the molecule `O=C(O)c1c2c(nc3ccc(F)cc13)-c1ccc(-c3ccccc3F)cc1CC2`, the Ki in assay [1] came out at 34 nM. Besides, in assay [2], the IC50 was determined as 40 nM.

On to `O=C(O)c1c2c(nc3ccc(F)cc13)-c1ccc(-c3ccccc3)cc1CS2`, for which the Ki in assay [1] stood at 170 nM. Besides, the IC50 in assay [2] is 310 nM.

In the case of `Cc1ccccc1-c1ccc2c(c1)CCc1c-2nc2ccc(F)cc2c1C(=O)O`, in assay [1], the inhibition constant (Ki) is 10 nM. The IC50 in assay [2] came to 30 nM.

As to `Cc1ccccc1-c1ccc2c(c1)SCc1c-2nc2ccc(F)cc2c1C(=O)O`, the Ki in assay [1] was found to be 27 nM. For the same molecule, the IC50 in assay [2] stood at 0.6 nM.

Regarding `O=C(O)c1c2c(nc3ccc(F)cc13)-c1cnc(-c3ccccc3)nc1CC2`, in assay [1], the Ki was determined as 380 nM. In assay [2], the IC50 was found to be 600 nM.

Regarding `O=C(O)c1c2c(nc3ccc(F)cc13)-c1ccc(-c3ccccc3C(F)(F)F)cc1CC2`, the Ki in assay [1] amounted to 40 nM. The IC50 in assay [2] was found to be 50 nM.

`O=C(O)c1c2c(nc3ccc(F)cc13)-c1sc(-c3ccccc3)cc1CC2`: in assay [1], the Ki was more than 182 nM. The IC50 in assay [2] was more than 10000 nM.

`O=C(O)c1c2c(nc3ccc(F)cc13)-c1cccc(Oc3ccccc3)c1CC2`: the Ki in assay [1] amounted to 962 nM. The IC50 in assay [2] was more than 5000 nM.

Regarding `O=C(O)c1c2c(nc3ccc(F)cc13)-c1ccc(-c3ccccc3)cc1[S+]([O-])C2` (stereo unspecified), in assay [1], the Ki was 206 nM. In assay [2], the IC50 came to 240 nM.

On to `O=C(O)c1c2c(nc3ccc(F)cc13)-c1ccc(-c3ccoc3)cc1CC2`, for which the Ki in assay [1] worked out at 190 nM. Besides, the IC50 in assay [2] was found to be 280 nM.

As for `COc1ccc(-c2ccc3c(c2)CCc2c-3nc3ccc(F)cc3c2C(=O)O)cc1`, the Ki in assay [1] stood at 55 nM. Also, in assay [2], the IC50 is 60 nM.

For the molecule `Cc1c(-c2ccc(-c3ccccc3F)cc2)nc2ccc(F)cc2c1C(=O)O` [BREQUINAR SODIUM], the concentration for half-maximal inhibition (IC50) in assay [2] is 15 nM.

For the origin of these results see ChEMBL document CHEMBL1130739 (Bioorg Med Chem Lett, 1998).
